A value given as a limit tells only on which side of the number the result lay.

For this experiment, the system named is HCV 1b-Con1 replicon. Nature of the experiment: HCV 1b-Con1 replicon assay in the presence of 5% FBS. The format is cell-based. The following applies: Hepatitis C virus.
On to `COC(=O)N[C@H](C(=O)N1CCC[C@H]1c1nc2cc([C@H]3CC[C@H](c4ccc5[nH]c([C@@H]6CCCN6C(=O)[C@@H](NC(=O)OC)C(C)C)nc5c4)N3c3ccc(N4CCCCC4=O)cc3)ccc2[nH]1)C(C)C` [Example 1.2, methyl {(2S)-1-[(2S)-2-(5-{(2R,5R)-5-{2-[(2S)-1-{(2S)-2-[(methoxycarbonyl)amino]-3-methylbutanoyl}pyrrolidin-2-yl]-1H-benzimidazol-5-yl}-1-[4-(2-oxopiperidin-1-yl)phenyl]pyrrolidin-2-yl}-1H-benzimidazol-2-yl)pyrrolidin-1-yl]-3-methyl-1-oxobutan-2-yl}carbamate], for which the concentration giving a half-maximal response (EC50) is more than 10 nM.
To `COC(=O)N[C@H](C(=O)N1[C@H](c2nc3cc([C@H]4CC[C@H](c5ccc6[nH]c([C@@H]7C[C@@H]8CCC[C@@H]8N7C(=O)[C@@H](NC(=O)OC)C7CCCC7)nc6c5)N4c4cc(F)c(N5CCCCC5)c(F)c4)ccc3[nH]2)C[C@@H]2CCC[C@@H]21)C1CCCC1` [Example 3.30, dimethyl ({(2R,5R)-1-[3,5-difluoro-4-(piperidin-1-yl)phenyl]pyrrolidine-2,5-diyl}bis{1H-benzimidazole-5,2-diyl(2S,3aS,6aS)hexahydrocyclopenta[b]pyrrole-2,1(2H)-diyl[(1S)-1-cyclopentyl-2-oxoethane-2,1-diyl]})biscarbamate] belongs less than 0.1 nM.
With `COC(=O)N[C@H](C(=O)N1CCC[C@H]1c1nc2cc([C@H]3CC[C@H](c4cc5nc([C@@H]6CCCN6C(=O)[C@@H](NC(=O)OC)C6CCOCC6)[nH]c5cc4F)N3c3cc(F)c(N4CCN(c5c(F)cccc5F)CC4)c(F)c3)c(F)cc2[nH]1)C1CCOCC1` [Example 3.51, dimethyl ([(2R,5R)-1-{4-[4-(2,6-difluorophenyl)piperazin-1-yl]-3,5-difluorophenyl}pyrrolidine-2,5-diyl]bis{(6-fluoro-1H-benzimidazole-5,2-diyl)(2S)pyrrolidine-2,1-diyl[(1S)-2-oxo-1-(tetrahydro-2H-pyran-4-yl)ethane-2,1-diyl]})biscarbamate], the 50% effective concentration (EC50) is less than 0.1 nM.
The same measure for `COC(=O)N[C@H](C(=O)N1CCC[C@H]1c1nc2c(C)c([C@H]3CC[C@H](c4ccc5[nH]c([C@@H]6CCCN6C(=O)[C@@H](NC(=O)OC)C(C)C)nc5c4C)N3c3ccc(C(C)(C)C)cc3)ccc2[nH]1)C(C)C` [Example 6.7, methyl {(2S)-1-[(2S)-2-{5-[(2R,5R)-1-(4-tert-butylphenyl)-5-{2-[(2S)-1-{(2S)-2-[(methoxycarbonyl)amino]-3-methylbutanoyl}pyrrolidin-2-yl]-4-methyl-1H-benzimidazol-5-yl}pyrrolidin-2-yl]-4-methyl-1H-benzimidazol-2-yl}pyrrolidin-1-yl]-3-methyl-1-oxobutan-2-yl}carbamate]: less than 0.1 nM; for `COC(=O)N[C@@H](C(=O)N1c2ccccc2C[C@H]1c1nc2cc([C@H]3CC[C@H](c4ccc5[nH]c([C@@H]6Cc7ccccc7N6C(=O)[C@H](NC(=O)OC)C(C)C)nc5c4)N3c3cc(F)c(N4CCCCC4)c(F)c3)ccc2[nH]1)C(C)C` [Example 3.25, methyl {(2R)-1-[(2S)-2-{5-[(2R,5R)-1-[3,5-difluoro-4-(piperidin-1-yl)phenyl]-5-{2-[(2S)-1-{(2R)-2-[(methoxycarbonyl)amino]-3-methylbutanoyl}-2,3-dihydro-1H-indol-2-yl]-1H-benzimidazol-5-yl}pyrrolidin-2-yl]-1H-benzimidazol-2-yl}-2,3-dihydro-1H-indol-1-yl]-3-methyl-1-oxobutan-2-yl}carbamate]: less than 0.1 nM; for `CCC1(COc2c(F)cc(N3[C@@H](c4ccc5nc([C@@H]6CCCN6C(=O)[C@@H](NC(=O)OC)C(C)C)[nH]c5c4)CC[C@@H]3c3ccc4nc([C@@H]5CCCN5C(=O)[C@@H](NC(=O)OC)C(C)C)[nH]c4c3)cc2F)COC1` [Example 2.5, methyl {(2S)-1-[(2S)-2-{6-[(2R,5R)-1-{4-[(3-ethyloxetan-3-yl)methoxy]-3,5-difluorophenyl}-5-{2-[(2S)-1-{(2S)-2-[(methoxycarbonyl)amino]-3-methylbutanoyl}pyrrolidin-2-yl]-1H-benzimidazol-6-yl}pyrrolidin-2-yl]-1H-benzimidazol-2-yl}pyrrolidin-1-yl]-3-methyl-1-oxobutan-2-yl}carbamate]: less than 0.1 nM.
For `COC(=O)N[C@H](C(=O)N1CCC[C@H]1c1nc2ccc([C@H]3CC[C@H](c4ccc5nc([C@@H]6CCCN6C(=O)[C@@H](NC(=O)OC)C(C)C)[nH]c5c4)N3c3cc(F)c(N4CCC(c5ccccn5)CC4)c(F)c3)cc2[nH]1)C(C)C` [Example 2.13, methyl {(2S)-1-[(2S)-2-{5-[(2R,5R)-1-{3,5-difluoro-4-[4-(pyridin-2-yl)piperidin-1-yl]phenyl}-5-{2-[(2S)-1-{(2S)-2-[(methoxycarbonyl)amino]-3-methylbutanoyl}pyrrolidin-2-yl]-1H-benzimidazol-5-yl}pyrrolidin-2-yl]-1H-benzimidazol-2-yl}pyrrolidin-1-yl]-3-methyl-1-oxobutan-2-yl}carbamate], the EC50 is less than 0.1 nM.
To `COC(=O)N[C@H](C(=O)N1CCC[C@H]1c1nc2cc([C@H]3CC[C@H](c4cc5nc([C@@H]6CCCN6C(=O)[C@@H](NC(=O)OC)C6CCOCC6)[nH]c5cc4F)N3c3cc(F)c(N4CCC(c5ccc(F)cc5)CC4)c(F)c3)c(F)cc2[nH]1)C1CCOCC1` [Example 3.53, dimethyl ([(2R,5R)-1-{3,5-difluoro-4-[4-(4-fluorophenyl)piperidin-1-yl]phenyl}pyrrolidine-2,5-diyl]bis{(6-fluoro-1H-benzimidazole-5,2-diyl)(2S)pyrrolidine-2,1-diyl[(1S)-2-oxo-1-(tetrahydro-2H-pyran-4-yl)ethane-2,1-diyl]})biscarbamate] belongs less than 0.1 nM.
To `COC(=O)N[C@H](C(=O)N1CCC[C@H]1c1nc2cc([C@H]3CC[C@H](c4ccc5[nH]c([C@@H]6CCCN6C(=O)[C@@H](NC(=O)OC)C6Cc7ccccc7C6)nc5c4)N3c3cc(F)c(N4CCC(c5ccccc5)CC4)c(F)c3)ccc2[nH]1)C1Cc2ccccc2C1` [Example 3.27, dimethyl ({(2R,5R)-1-[3,5-difluoro-4-(4-phenylpiperidin-1-yl)phenyl]pyrrolidine-2,5-diyl}bis{1H-benzimidazole-5,2-diyl(2S)pyrrolidine-2,1-diyl[(1S)-1-(2,3-dihydro-1H-inden-2-yl)-2-oxoethane-2,1-diyl]})biscarbamate] belongs less than 0.1 nM; to `COC(=O)N[C@H](C(=O)N1C[C@@H](OC)C[C@H]1c1nc2cc([C@H]3CC[C@H](c4ccc5[nH]c([C@@H]6C[C@H](OC)CN6C(=O)[C@@H](NC(=O)OC)C(C)C)nc5c4)N3c3cc(F)c(N4CCCCC4)c(F)c3)ccc2[nH]1)C(C)C` [Example 3.7, methyl {(2S)-1-[(2S,4S)-2-{5-[(2R,5R)-1-[3,5-difluoro-4-(piperidin-1-yl)phenyl]-5-{2-[(2S,4S)-4-methoxy-1-{(2S)-2-[(methoxycarbonyl)amino]-3-methylbutanoyl}pyrrolidin-2-yl]-1H-benzimidazol-5-yl}pyrrolidin-2-yl]-1H-benzimidazol-2-yl}-4-methoxypyrrolidin-1-yl]-3-methyl-1-oxobutan-2-yl}carbamate], less than 0.1 nM; to `COC(=O)N[C@H](C(=O)N1CCC[C@H]1c1nc2cc([C@H]3CC[C@H](c4ccc5[nH]c([C@@H]6CCCN6C(=O)[C@@H](NC(=O)OC)C(C)C)nc5c4)N3c3ccc(-c4ncco4)cc3)ccc2[nH]1)C(C)C` [Example 2.1, methyl {(2S)-1-[(2S)-2-(5-{(2R,5R)-5-{2-[(2S)-1-{(2S)-2-[(methoxycarbonyl)amino]-3-methylbutanoyl}pyrrolidin-2-yl]-1H-benzimidazol-5-yl}-1-[4-(1,3-oxazol-2-yl)phenyl]pyrrolidin-2-yl}-1H-benzimidazol-2-yl)pyrrolidin-1-yl]-3-methyl-1-oxobutan-2-yl}carbamate], less than 0.1 nM.
As for `COC(=O)N[C@H](C(=O)N1CCC[C@H]1c1nc2cc([C@H]3CC[C@H](c4ccc5[nH]c([C@@H]6CCCN6C(=O)[C@@H](NC(=O)OC)C(C)C)nc5c4)N3c3ccc(N4CCC(c5ccccc5)CC4)cc3)ccc2[nH]1)C(C)C` [Example 4.25, methyl {(2S)-1-[(2S)-2-(5-{(2R,5R)-5-{2-[(2S)-1-{(2S)-2-[(methoxycarbonyl)amino]-3-methylbutanoyl}pyrrolidin-2-yl]-1H-benzimidazol-5-yl}-1-[4-(4-phenylpiperidin-1-yl)phenyl]pyrrolidin-2-yl}-1H-benzimidazol-2-yl)pyrrolidin-1-yl]-3-methyl-1-oxobutan-2-yl}carbamate], the EC50 lay within 0.1 to 1 nM.
With `COC(=O)N[C@H](C(=O)N1CCC[C@H]1C(=O)Nc1ccc(C2CC[C@@H](c3ccc(NC(=O)[C@@H]4CCCN4C(=O)[C@@H](NC(=O)OC)C(C)C)cc3)N2c2cc(F)c(N3CCC(c4ccccc4)CC3)c(F)c2)cc1)C(C)C` (stereo partly drawn) [Example 8, dimethyl ({(2S)-1-[3,5-difluoro-4-(4-phenylpiperidin-1-yl)phenyl]pyrrolidine-2,5-diyl}bis{4,1-phenylenecarbamoyl(2S)pyrrolidine-2,1-diyl[(2S)-3-methyl-1-oxobutane-1,2-diyl]})biscarbamate], the half-maximal effective concentration (EC50) is less than 0.1 nM.
Regarding `COC(=O)N[C@H](C(=O)N1CCC[C@H]1c1nc2cc([C@H]3CC[C@H](c4cc5nc([C@@H]6CCCN6C(=O)[C@@H](NC(=O)OC)[C@@H](C)OC)[nH]c5cc4F)N3c3cc(F)c(N4CCCCC4)c(F)c3)c(F)cc2[nH]1)[C@@H](C)OC` [Example 3.36, methyl {(2S,3R)-1-[(2S)-2-{5-[(2R,5R)-1-[3,5-difluoro-4-(piperidin-1-yl)phenyl]-5-(6-fluoro-2-{(2S)-1-[N-(methoxycarbonyl)-O-methyl-L-threonyl]pyrrolidin-2-yl}-1H-benzimidazol-5-yl)pyrrolidin-2-yl]-6-fluoro-1H-benzimidazol-2-yl}pyrrolidin-1-yl]-3-methoxy-1-oxobutan-2-yl}carbamate], the 50% effective concentration (EC50) is less than 0.1 nM.

In general, EC50 refers to the concentration that produces a half-maximal response.

The record behind these values is US20120220562A1, “Anti-Viral Compounds” (ABBOTT LABAORATORIES, priority 2011, published 2012).
